target: T1, Abl T315I kinase domain (unphosphorylated) (Mus musculus, UniProt P00520, T315I); assay: Abl_T315I Bioassay (c-Abl PK/LDH coupled enzyme assay); assay type: biochemical; conditions: 10 μM ATP
T1 construct: purified and unphosphorylated T315I Abl kinase domain; made in house; host or cells: E. coli BL21(DE3) strains
T1 sequence (P00520 242-493 T315I limits assumed): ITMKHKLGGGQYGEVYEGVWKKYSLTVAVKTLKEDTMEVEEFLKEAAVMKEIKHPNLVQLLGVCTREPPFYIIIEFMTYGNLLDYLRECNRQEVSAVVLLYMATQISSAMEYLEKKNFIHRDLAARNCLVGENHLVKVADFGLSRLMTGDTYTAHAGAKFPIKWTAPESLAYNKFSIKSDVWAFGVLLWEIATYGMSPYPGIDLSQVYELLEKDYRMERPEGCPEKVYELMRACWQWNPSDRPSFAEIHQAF
Excerpt: Although the first of these examples uses the kinase domain of a mutant form of Abl T315I (“Abl T315I KD”), the kinase assays may use various forms of mutant and wild type enzymes, including, for example, the entire protein, the kinase domain, or a portion thereof (e.g. Abl Y393F). The kinases used in the assays may also be of varying phosphorylation states. In the c-Abl example, a mutant kinase at a zero phosphorylation state was used.
In the c-Abl Pyruvate Kinase (PK)/Lactate Dehydrogenase (LDH) Coupled Assay the protein kinase dependant phosphorylation of a substrate peptide was coupled to the oxidation of NADH. The oxidation of NADH to NAD+ was detected by monitoring a decrease in absorbance at 340 nm.
Materials: Abl substrate peptide=EAIYAAPFAKKK (SEQ ID NO:1)-OH (Biopeptide, San Diego, Calif.); βNADH (Sigma Cat#N-8129, FW=709.4); 2M MgCl2; 1M HEPES buffer, pH 7.5; Phosphoenolpyruvate (PEP) (Sigma Cat#P-7002, FW=234); Lactate dehydrogenase (LDH) (Worthington Biochemical Cat#2756); Pyruvate Kinase (PK) (Sigma Cat#P-9136); ATP (Sigma Cat#A-3377, FW=551); Greiner 384-well UV star plate; and purified and unphosphorylated T315I Abl kinase domain.
Stock Solutions: 10 mM NADH (7.09 mg/ml in miliQH2O) made fresh daily; 10 mM Abl substrate peptide (13.4 mg/ml in miliQH2O) stored at −20° C.; 100 mM HEPES buffer, pH 7.5 (5 ml 1M stock+45 ml miliQH2O); 100 mM MgCl2 (5 ml 2M MgCl2+95 ml dH2O); 100 mM PEP (23.4 mg/ml in dH2O) stored at −20° C.; 10 mM ATP (5.51 mg/ml in dH2O) stored at −20° C. (diluted 50 μl into total of 10 ml miliQH2O daily=50 μM ATP working stock); 1000 U/ml PK (U/mg varies with lot) flash-frozen under liquid N2 and stored at −80° C.; and 1000 U/ml LDH (U/mg varies with lot) flash-frozen under liquid N2 and stored at −80° C.
Standard Assay Setup for 384-well format (50 μl reaction): 300 μM NADH; 10 mM MgCl2; 2 mM PEP; 45 U/ml PK; 60 U/ml LDH; 200 μM Abl substrate peptide; 2.5 μl test compound (in DMSO); 2 μg/ml Abl kinase domain; 10 μM ATP; 100 mM HEPES buffer. Positive controls contained DMSO with no test compound. Negative controls contained 5 μl of 0.5M EDTA (50 mM in the assay). The dephosphorylated form of the c-Abl T315I mutant was used in the biochemical screening assays. The kinase reaction was initiated at time t=0 by the addition of ATP.
Activity was measured by following the time-dependent loss of NADH by absorbance spectroscopy at 340 nm. The linear portion of the resulting progress curve was then analyzed by linear regression to get the activity in absorbance units/time, reported as the slope of that best fit line (moles/unit time can be calculated from using molar extinction coefficient for NADH at 340 nm, 6250M^−1 cm^−1).
Data was evaluated using the equation: Z′=1−[3*(σ++σ−)/|μ+−μ−|](Zhang, et al., 1999 J Biomol Screening 4(2) 67-73), where μ denotes the mean and σ the standard deviation. The subscript designates positive or negative controls. The Z′ score for a robust screening assay should be ≧0.50. The typical threshold=μ+−3*σ+. Any value that falls below the threshold was designated a “hit”.
Dose response was analyzed using the equation: y=min+{(max−min)/(1+10^[compound]−logIC50)}, where y is the observed initial slope, max=the slope in the absence of inhibitor, min=the slope at infinite inhibitor, and the IC50 is the [compound] that corresponds to ½ the total observed amplitude (Amplitude=max−min).
To measure modulation, activation, or inhibition of Abl KD, a test compound was added to the assay at a range of concentrations. Inhibitors may inhibit Abl KD activity at an IC50 in the micromolar range, the nanomolar range, or, for example, in the subnanomolar range.
An open-reading frame for c-Abl was amplified from a Mus musculus (mouse) cDNA library prepared from freshly harvested mouse liver using a commercially available kit (Invitrogen) by PCR using the following primers: […]
The c-Abl T315I KD (kinase domain) was purified as follows. […]

| IC50 | Compound |
| --- | --- |
| < 50 nM | CNC(=O)c1cncc(-c2cnc3[nH]cc(-c4ccccc4OC)c3c2)c1 [AE1] |
| < 50 nM | COc1ccccc1-c1c[nH]c2ncc(-c3ccc(CN(C)C)cc3)cc12 [AE8] |
| < 50 nM | COc1ccccc1-c1c[nH]c2ncc(-c3cc[nH]c(=O)c3)cc12 [AE9] |
| < 50 nM | COc1ccccc1-c1c[nH]c2ncc(-c3ccc4[nH]cc(CC(=O)O)c4c3)cc12 [AE10] |
| < 50 nM | COc1ccccc1-c1c[nH]c2ncc(-c3cccc(S(C)(=O)=O)c3)cc12 [AE13] |
| < 50 nM | COc1ccccc1-c1c[nH]c2ncc(-c3ccc(O)c(CN4CCCN(C)CC4)c3)cc12 [AE41] |
| < 50 nM | COc1ccccc1-c1c[nH]c2ncc(-c3cccc(C(=N)N4CCCCC4)c3)cc12 [AE42] |
| < 50 nM | COc1cc(-c2cnc3[nH]cc(-c4ccccc4OC)c3c2)ccc1O [AE64] |
| < 50 nM | COc1cc(-c2cnc3[nH]cc(-c4ccccc4OC)c3c2)ccc1OCCN1CCCC1 [AE65] |
| < 50 nM | COc1ccccc1-c1c[nH]c2ncc(-c3ccc[nH]3)cc12 [AE67] |

Continued, compound first:

| Compound | IC50 |
| --- | --- |
| CNC(=O)c1cc(-c2cnc3[nH]cc(-c4ccccc4OC)c3c2)cs1 [AE2] | < 50 nM |
| COc1ccccc1-c1c[nH]c2ncc(-c3csc(C(=O)N(C)C)c3)cc12 [AE3] | < 50 nM |
| COc1ccccc1-c1c[nH]c2ncc(-c3ccc(S(N)(=O)=O)s3)cc12 [AE11] | < 50 nM |
| O=C(c1cncc(-c2cnc3[nH]cc(-c4ccc5cc[nH]c5c4)c3c2)c1)N1CCOCC1 [AE14] | < 50 nM |
| N#Cc1cc(-c2cnc3[nH]cc(-c4ccc5[nH]ccc5c4)c3c2)ccc1O [AE20] | < 50 nM |
| COc1ccccc1-c1c[nH]c2ncc(-c3ccc(S(N)(=O)=O)cc3)cc12 [AE21] | < 50 nM |
| c1cc2cc(-c3c[nH]c4ncc(-c5ccc6[nH]cnc6c5)cc34)ccc2[nH]1 [AE22] | < 50 nM |
| Oc1cccc(-c2cnc3[nH]cc(-c4ccc(O)c(F)c4)c3c2)c1 [AE48] | < 50 nM |
| Oc1cccc(-c2cnc3[nH]cc(-c4ccn[nH]4)c3c2)c1 [AE49] | < 50 nM |
| Nc1nc(-c2c[nH]c3ncc(-c4ccc5[nH]ccc5c4)cc23)cs1 [AE55] | < 50 nM |
| COc1cc(-c2cnc3[nH]cc(-c4ccc(O)cc4)c3c2)ccc1O [AE58] | < 50 nM |
| COCCOc1ccc(-c2cnc3[nH]cc(-c4ccccc4OC)c3c2)cc1OCCOC [AE68] | < 50 nM |
